Structures are written as SMILES.

In experiment [1] the target is Human CB1R (Cannabinoid receptor 1) (Homo sapiens, UniProt P21554). The experiment can be described thus: CB-1 in vitro cAMP (HTRF) assay. Type of experiment: cell-based. To be noted: HEK cells, cAMP HTRF, 250 nM forskolin; mean where tested more than once; read-out: CB1 HEK_cAMP EC50. Put shortly:
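Intracellular cAMP from HTRF ratio (d2-cAMP vs Eu-cryptate anti-cAMP), converted to nM via per-plate standards, in stable human CB1R HEK-293 cells.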

For experiment [2], the target named is Human CB2R (Cannabinoid receptor 2) (Homo sapiens, UniProt P34972). Briefly: CB-2 in vitro cAMP (HTRF) assay. In kind it is cell-based. The following applies: HEK cells, cAMP HTRF, 250 nM forskolin; mean where tested more than once; read-out: CB2 HEK_cAMP EC50. Put shortly: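 Competitive HTRF read-out (d2-labelled cAMP vs cryptate antibody) quantifies cAMP in stably transfected HEK-293 cells, seeded the day before at 4E5 cells/mL. Stimulation buffer: HBSS, 5 mM HEPES, 0.1% BSA, 0.5 mM IBMX; forskolin prepared at 1.5 μM in buffer; compounds serially diluted 1/3 in DMSO.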
(TR-FRET usually uses a lanthanide donor and a delayed reading to cut background.)

Chain of Human CB1R (Cannabinoid receptor 1) (P21554 whole entry): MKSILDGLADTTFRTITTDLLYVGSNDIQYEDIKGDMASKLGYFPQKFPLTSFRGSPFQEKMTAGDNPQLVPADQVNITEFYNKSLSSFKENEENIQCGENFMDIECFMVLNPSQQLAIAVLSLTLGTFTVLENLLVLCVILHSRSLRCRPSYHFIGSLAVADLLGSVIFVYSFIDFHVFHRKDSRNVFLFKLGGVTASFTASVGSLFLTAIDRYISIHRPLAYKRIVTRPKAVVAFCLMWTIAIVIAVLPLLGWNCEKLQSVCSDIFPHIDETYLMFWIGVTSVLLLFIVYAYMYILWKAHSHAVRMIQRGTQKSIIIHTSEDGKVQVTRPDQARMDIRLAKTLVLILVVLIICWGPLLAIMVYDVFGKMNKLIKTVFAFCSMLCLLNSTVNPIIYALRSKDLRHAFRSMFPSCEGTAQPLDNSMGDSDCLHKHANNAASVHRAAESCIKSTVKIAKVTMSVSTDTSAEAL
Chain of Human CB2R (Cannabinoid receptor 2) (P34972 whole entry): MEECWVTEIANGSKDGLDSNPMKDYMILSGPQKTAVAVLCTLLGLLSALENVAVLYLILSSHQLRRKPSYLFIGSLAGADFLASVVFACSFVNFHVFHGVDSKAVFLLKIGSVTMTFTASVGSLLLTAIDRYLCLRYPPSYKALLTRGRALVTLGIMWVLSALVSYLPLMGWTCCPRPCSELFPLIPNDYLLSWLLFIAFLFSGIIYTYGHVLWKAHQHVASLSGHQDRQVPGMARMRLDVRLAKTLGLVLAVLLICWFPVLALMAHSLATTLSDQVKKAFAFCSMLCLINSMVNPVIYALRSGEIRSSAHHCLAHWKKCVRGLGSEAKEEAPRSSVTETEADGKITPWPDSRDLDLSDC

The EC50 is the concentration giving half of the maximal effect. In the case of `O=S(=O)(N1CCC(n2c(C3CCC3)nc3ccc(C(O)(c4ccc(Cl)cc4)c4ccc(Cl)cc4)cc32)CC1)C(F)(F)F` [Example 319], the figures for the EC50 in experiment [1] and in experiment [2] were 0.0225 µM and over 10 µM, respectively.

For the molecule `O=S(=O)(N1CCC(Cn2c(C3CCC3)nc3ccc(C(c4ccc(Cl)cc4)c4ccc(Cl)cc4)cc32)CC1)C(F)(F)F` [Example 288], the values for the EC50 in experiment [1] and in experiment [2] were 0.0023 µM and over 10 µM, respectively.

Consider `NC(=O)c1ccc(S(=O)(=O)N2CCC(n3c(C4CC4)nc4ccc(C(CO)(c5ccc(Cl)cc5)c5ccc(Cl)cc5)cc43)CC2)cc1Cl` [Example 212], for which the EC50 is 3.74 µM in experiment [1] and over 10 µM in experiment [2].

Consider `CCOC(=O)N1CCC(n2c(N(C)C)nc3ccc(C(c4ccc(Cl)cc4)c4nccs4)cc32)CC1` (stereo not drawn) [Example 439], for which the EC50 in experiment [1] and in experiment [2] was over 10 µM throughout.

Consider `CCCc1nc2ccc(C(c3ccc(Cl)cc3)c3nccs3)cc2n1C1CCN(S(=O)(=O)C(F)(F)F)CC1` (stereo not drawn) [Example 399], for which the EC50 in experiment [1] is 0.163 µM; in experiment [2], over 10 µM.

For the molecule `O=C(O)c1cc(S(=O)(=O)N2CCC(n3c(C4CC4)nc4ccc(C(c5ccc(Cl)cc5)c5ccc(Cl)cc5)cc43)CC2)ccc1Cl` [Example 214], the EC50 in experiment [1] is 0.0225 µM; in experiment [2] it was 5.05 µM.

Regarding `Clc1ccc(C(c2ccc3nc(-c4ccc(Cl)cc4Cl)n(C4CCCCC4)c3c2)c2nccs2)cc1` (stereo not drawn) [Example 444], the figures for the EC50 in experiment [1] and in experiment [2] were 0.535 µM and over 10 µM, respectively.

In the case of `CCOC(=O)N1CCC(n2c(Cl)nc3ccc(C(c4ccc(Cl)cc4)c4nccs4)cc32)CC1` (stereo not drawn) [Example 422], the figures for the EC50 in experiment [1] and in experiment [2] were 0.598 µM and over 10 µM, respectively.

On to `O=C(O)c1ccc(Cl)c(CN2CCC(n3c(C4CC4)nc4ccc(C(c5ccc(Cl)cc5)c5ccc(Cl)cc5)cc43)CC2)c1` [Example 94], for which the EC50 in experiment [1] was 0.0261 µM; in experiment [2], 4.76 µM.

With `NC(=O)COc1cccc(N2CCC(n3c(C4CC4)nc4ccc(C(c5ccc(Cl)cc5)c5ccc(Cl)cc5)cc43)CC2)c1` [Example 153], the EC50 in experiment [1] stood at 0.0087 µM; in experiment [2] it was 3.61 µM.

As to `NC(=O)c1ccc(C(=O)N2CCC(n3c(C4CC4)nc4ccc(C(c5ccc(Cl)cc5)c5ccc(Cl)cc5)cc43)CC2)cn1` [Example 223], the EC50 in experiment [1] was found to be 0.0248 µM; in experiment [2], 3.34 µM.

Regarding `O=S(=O)(c1ccc(C(F)(F)F)cc1)N1CCC(n2c(C3CC3)nc3ccc(C(c4ccc(Cl)cc4)c4ccc(Cl)cc4)cc32)CC1` [Example 280], the values for the EC50 in experiment [1] and in experiment [2] were 0.0105 µM and over 10 µM, respectively.

Consider `CC(C)(C)c1csc(C(c2ccc(Cl)cc2)c2ccc3ncn(Cc4ccc(Cl)cc4)c3c2)n1` (stereo not drawn) [Example 449], for which the EC50 in experiment [1] and in experiment [2] was over 10 µM throughout.

As to `COC(=O)CCNC(=O)c1cccc(S(=O)(=O)N2CCC(n3c(C4CC4)nc4ccc(C(c5ccc(Cl)cc5)c5ccc(Cl)cc5)cc43)CC2)c1` [Example 203], the EC50 in experiment [1] was 0.0324 µM; in experiment [2], over 10 µM.

Turning to `O=C(O)c1ccc(C(F)(F)F)c(CN2CCC(n3c(C4CC4)nc4ccc(C(c5ccc(Cl)cc5)c5ccc(Cl)cc5)cc43)CC2)c1` [Example 80], the concentration giving a half-maximal response (EC50) stood at 0.0866 µM in experiment [1] and 11.4 µM in experiment [2].

Consider `CC(c1cccc(C(=O)O)c1)N1CCC(n2c(C3CC3)nc3ccc(C(c4ccc(Cl)cc4)c4ccc(Cl)cc4)cc32)CC1` (single isomer, unassigned) [Example 48], for which the EC50 in experiment [1] amounted to 0.003 µM; in experiment [2], 3.84 µM.

Turning to `O=S(=O)(N1CCC(n2c(C3CC3)nc3ccc(C(c4ccc(Cl)cc4)c4ccc5c(c4)OCO5)cc32)CC1)C(F)(F)F` (stereo not drawn) [Example 321], the results for the EC50 in experiment [1] and in experiment [2] were 0.0062 µM and 4.03 µM, respectively.

As for `Oc1cccc(N[C@H]2CC[C@H](n3c(C4CC4)nc4ccc(C(c5ccc(Cl)cc5)c5ccc(Cl)cc5)cc43)CC2)c1` [Example 28], the figures for the EC50 in experiment [1] and in experiment [2] were 0.0215 µM and over 10 µM, respectively.

With `CC(c1ccc(C(=O)O)o1)N1CCC(n2c(C3CC3)nc3ccc(C(c4ccc(Cl)cc4)c4ccc(Cl)cc4)cc32)CC1` (stereo not drawn) [Example 86], the EC50 is 0.015 µM in experiment [1] and 10.2 µM in experiment [2].

On to `O=C(O)c1cccc(CN2CCC(n3c(C4CC4)nc4ccc(C(c5ccc(Cl)cc5)c5ccc(Cl)cc5)cc43)CC2)c1Cl` [Example 91], for which the figures for the EC50 in experiment [1] and in experiment [2] were 0.0324 µM and 9.4 µM, respectively.

In the case of `CCc1nc2ccc(C(c3ccc(Cl)cc3)c3nccs3)cc2n1CC1CCN(S(=O)(=O)C(F)(F)F)CC1` (stereo not drawn) [Example 323], the figures for the EC50 in experiment [1] and in experiment [2] were 0.0165 µM and over 10 µM, respectively.

With `Clc1ccc(C(c2ccc3nc(-c4ccco4)n(-c4cccc(Cl)c4)c3c2)c2nccs2)cc1` (stereo not drawn) [Example 377], the EC50 in experiment [1] and in experiment [2] was over 10 µM each time.

Regarding `O=C(O)c1ccc(-c2cccc(S(=O)(=O)NCCCn3c(C4CC4)nc4ccc(C(c5ccc(Cl)cc5)c5ccc(Cl)cc5)cc43)c2)cc1` [Example 8], the results for the EC50 in experiment [1] and in experiment [2] were 0.0339 µM and 0.0782 µM, respectively.

For `O=S(=O)(c1ccc(OC(F)(F)F)cc1)N1CCC(n2c(C3CC3)nc3ccc(C(c4ccc(Cl)cc4)c4ccc(Cl)cc4)cc32)CC1` [Example 279], the results for the EC50 in experiment [1] and in experiment [2] were 0.0322 µM and over 10 µM, respectively.

On to `Oc1ccc(-n2c(C3CC3)nc3ccc(C(c4ccc(Cl)cc4)c4ccc(Cl)cc4)cc32)cc1` [Example 171], for which the EC50 in experiment [1] is 0.167 µM; in experiment [2], over 10 µM.

`O=C(O)c1cccc(CN2CCC(n3c(C4CC4)nc4ccc(C(c5ccc(F)cc5)c5ccc(F)cc5)cc43)CC2)c1` [Example 97]: the figures for the EC50 in experiment [1] and in experiment [2] were 0.0187 µM and over 10 µM, respectively.

For the molecule `O=C(O)c1ccccc1S(=O)(=O)N1CCC(n2c(C3CC3)nc3ccc(C(c4ccc(Cl)cc4)c4ccc(Cl)cc4)cc32)CC1` [Example 241], the figures for the EC50 in experiment [1] and in experiment [2] were 0.459 µM and 7.9 µM, respectively.

As for `NC(=O)c1ccc(S(=O)(=O)N2CCC(n3c(C4CC4)nc4ccc(C(c5ccc(Cl)cc5)c5ccc(Cl)cc5)cc43)CC2)cc1F` [Example 189], the EC50 was 0.0295 µM in experiment [1] and over 10 µM in experiment [2].

For `O=C(O)COc1ccc(-n2c(C3CC3)nc3ccc(C(c4ccc(Cl)cc4)c4ccc(Cl)cc4)cc32)cc1` [Example 165], the EC50 in experiment [1] and in experiment [2] was over 10 µM throughout.

For the molecule `CC(c1cccc(C(=O)O)c1)N1CCC(n2c(C3CC3)nc3ccc(C(c4ccc(Cl)cc4)c4ccc(Cl)cc4)cc32)CC1` (single isomer, unassigned) [Example 47], the EC50 in experiment [1] amounted to 0.0024 µM; in experiment [2] it was 17.1 µM.

Regarding `COc1ccc(S(=O)(=O)N2CCC(n3c(C4CC4)nc4ccc(C(c5ccc(Cl)cc5)c5ccc(Cl)cc5)cc43)CC2)cc1F` [Example 225], the EC50 was 0.0415 µM in experiment [1] and over 10 µM in experiment [2].

Turning to `OC(c1ccc(Cl)cc1)(c1ccc2ncn(CCc3cccc(Cl)c3)c2c1)c1nccs1` (stereo not drawn) [Example 405], the results for the 50% effective concentration (EC50) in experiment [1] and in experiment [2] were 4.49 µM and 3.35 µM, respectively.

Take `Clc1ccc(Cn2c(-c3ccc(Cl)cc3)nc3ccc(C(c4ccc(Cl)cc4)c4nccs4)cc32)cc1` (stereo not drawn) [Example 464]: the EC50 was 0.212 µM in experiment [1] and over 7.2 µM in experiment [2].

For `O=C(O)c1cccc(CN2CCC(n3c(C4CC4)nc4ccc(C(c5ccc(F)cc5)c5ccc(Cl)cc5)cc43)CC2)c1` (stereo not drawn) [Example 98], the EC50 in experiment [1] was 0.0162 µM; in experiment [2] it was over 10 µM.

In the case of `NC(=O)c1ccc(S(=O)(=O)N2CCC(n3c(C4CC4)nc4ccc(C(c5ccc(Cl)cc5)c5ccc(Cl)cc5)cc43)CC2)cc1C(F)(F)F` [Example 184], the EC50 in experiment [1] is 0.0314 µM; in experiment [2], over 10 µM.

Take `NC(=O)c1ccc(S(=O)(=O)N2CCC(n3c(C4CC4)nc4ccc(C(c5ccc(Cl)cc5)c5ccc(Cl)cc5)cc43)CC2)cn1` [Example 238]: the results for the concentration giving a half-maximal response (EC50) in experiment [1] and in experiment [2] were 0.0019 µM and over 10 µM, respectively.

With `CCOC(=O)N1CCC(n2c(C(F)(F)F)nc3ccc(C(c4ccc(Cl)cc4)c4nccs4)cc32)CC1` (stereo not drawn) [Example 415], the EC50 in experiment [1] and in experiment [2] was over 10 µM throughout.

In the case of `O=S(=O)(N1CCC(n2c(C3CCCC3)nc3ccc(C(c4ccc(Cl)cc4)c4nccs4)cc32)CC1)C(F)(F)F` (stereo not drawn) [Example 395], the results for the concentration giving a half-maximal response (EC50) in experiment [1] and in experiment [2] were 0.137 µM and over 10 µM, respectively.

In the case of `O=C(NC1CCCC1)N1CCC(n2c(C3CC3)nc3ccc(C(c4ccc(Cl)cc4)c4ccc(Cl)cc4)cc32)CC1` [Example 74], the values for the EC50 in experiment [1] and in experiment [2] were 0.0706 µM and 5.39 µM, respectively.

Turning to `O=C(O)c1ccc(OCCn2c(C3CC3)nc3ccc(C(c4ccc(Cl)cc4)c4ccc(Cl)cc4)cc32)cc1` [Example 35], the EC50 was 3.34 µM in experiment [1] and 4.36 µM in experiment [2].

As for `OCc1nc2ccc(C(c3ccc(Cl)cc3)c3nccs3)cc2n1-c1cccc(Cl)c1` (stereo not drawn) [Example 374], the EC50 was 1.12 µM in experiment [1] and over 10 µM in experiment [2].

Take `CCc1csc(C(c2ccc(Cl)cc2)c2ccc3nc(C)n(Cc4ccc(Cl)cc4)c3c2)n1` (stereo not drawn) [Example 452]: the EC50 is 0.813 µM in experiment [1] and over 6.7 µM in experiment [2].

In the case of `NS(=O)(=O)c1ccc(C(=O)N2CCC(n3c(C4CC4)nc4ccc(C(c5ccc(Cl)cc5)c5ccc(Cl)cc5)cc43)CC2)cc1` [Example 230], the EC50 in experiment [1] stood at 0.0919 µM; in experiment [2], 5.9 µM.

For the molecule `O=C(c1cn[nH]n1)N1CCC(n2c(C3CC3)nc3ccc(C(c4ccc(Cl)cc4)c4ccc(Cl)cc4)cc32)CC1` [Example 199], the EC50 in experiment [1] came out at 0.173 µM; in experiment [2], 6.5 µM.

Regarding `O=C(O)c1cccc(N[C@H]2CC[C@H](n3c(C4CC4)nc4ccc(C(c5ccc(Cl)cc5)c5ccc(Cl)cc5)cc43)CC2)c1` [Example 31], the EC50 in experiment [1] was found to be 0.15 µM; in experiment [2] it was 3 µM.

(Values after US20190031618A1, “BENZIMIDAZOLE DERIVATIVES USEFUL AS CB-1 INVERSE AGONISTS” (Janssen Pharmaceutica NV, priority 2015, published 2019).)
